Values quoted from earlier work as cited in patent US20030114418A1, “Method for the treatment and prevention of pain and inflammation with glucosamine and a cyclooxygenase-2 selective inhibitor and compositions therefor” (Pharmacia Corporation, priority 2001, published 2003).

What was measured:
knee osteoarthritis = details: patients with knee osteoarthritis, 1500 mg/day, 3 years

SMILES | selectivity for the inhibition of Cox-2 versus Cox-1 (Cox-2) | also measured
CC(=O)N[C@H]1C(O)O[C@H](CO)[C@@H](O)[C@@H]1O (stereo partly shown) [N-acetylglucosamine] |  | effect on il-1beta-mediated activation of human chondrocytes (human chondrocytes): prevent il-1beta-mediated activation of human chondrocytes
N[C@H]1C(O)O[C@H](CO)[C@@H](O)[C@@H]1O.O=S(=O)(O)O (stereo partly shown) [glucosamine sulfate] |  | joint-space loss (knee osteoarthritis): no significant joint-space loss
CC1(C)CC[C@]2(C(=O)O)CC[C@]3(C)C(=CC[C@@H]4[C@@]5(C)CC[C@H](O)C(C)(C)[C@@H]5CC[C@]43C)[C@@H]2C1 [oleanic acid] | not substantially more selective for the inhibition of Cox-2 than for Cox-1 | 
C[C@H]1[C@H](C)CC[C@]2(C(=O)O)CC[C@]3(C)C(=CC[C@@H]4[C@@]5(C)CC[C@H](O)C(C)(C)[C@@H]5CC[C@]43C)[C@H]12 [ursolic acid] | not substantially more selective for the inhibition of Cox-2 than for Cox-1 | 
